The text below walks through data of patent US20140288040A1, “SUBSTITUTED BENZYLAMINE COMPOUNDS, THEIR USE IN MEDICINE, AND IN PARTICULAR THE TREATMENT OF HEPATITIS C VIRUS (HCV) INFECTION” (ASTEX THERAPEUTICS LIMITED, priority 2011, published 2014).

Assay [1] deals with T1, HCV NS3 protease (full length NS34a) (Hepatitis C virus genotype 1b, UniProt P26663).
T1 construct: The protease activity of the full length NS34a was measured using a FRET-based assay; made in house
The experiment in a line: HCV NS3 protease assay (FRET, full length NS34a). It is filed as biochemical. Particulars: protease activity of full length NS34a, FRET peptide substrate; read-out: Activity IC50. The essentials:
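FRET readout over 30 minutes at room temperature, with IC50 fitted to initial rates from replicate curves. Enzyme was full-length NS34a; substrate a peptide from the NS4AB cleavage site labelled with QXL520 and 5-FAMsp; buffer 50 mM Tris pH8 containing 20 mM DTT, 1% CHAPS, 10% glycerol and 5% DMSO.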

In assay [2] the test system is HCV subgenomic replicon in Huh-7 cells. As to the kind of experiment: Replicon assay, EC50 luciferase readout. It is filed as cell-based, hepatitis C virus (HCV). On the procedure:
The activities of compounds of the invention against HCV in a cellular environment were analysed using a replicon assay as described below.
Thus, Huh-7 cells persistently infected with an HCV-RNA construct (Bartenschlager, R. Hepatitis C replicons: potential role for drug development. Nature Rev. Drug Discov. 1, 911-916 (2002)) comprising: 5′ and 3′ non-translated regions (NTR); the non-structural genes NS3 to NS5b; as well as the G418 drug resistance gene, neomycin, (for selection of cells carrying HCV replicon RNA) fused to the firefly Luciferase reporter gene (pFK13889luc-ubi-neoNS3-3′ET), were used to determine the cell based antiviral activity of compounds using luciferase activity as an indirect readout of HCV RNA load. In this assay […] huh-7 cells persistently infected with the HCV subgenomic replicon construct above were platedwell in a 96 well tissue culture plate. The cells were allowed to attach overnight in DMEM medium supplemented with 10% FBS 1% NEAA, and 250 μgml gentamicin. The following day the medium was replaced with 200 μlwell of fresh medium as described above lacking gentamicin. […] Plates were then incubated at 37° C. in an atmosphere of 5% CO2 and air for 72 h. […] The plate was then read at 535 nm (excitation) and 590 nm (emission) on a SpectraMax Gemini reader (Molecular Devices) to determine the number of viable cells by measuring the conversion of rezasurin (Alamar blue) to resorufin in response to mitochondrial activity. In order to determine the antiviral effect of these compounds EC50 values were determined by measuring the luciferase activity of the cells. Alamar blue solution was removed from the wells and replaced with 100 μlwell of medium along with 100 μlwell of Bright-Glo reagent and incubated at room temperature for 5 minutes before transferring 100 μlwell to a white bottom 96 well plate to read in a luminometer as described in the Bright-Glo Luciferase Assay System protocol (promega).
Background: A replicon is a self-replicating genome or part of one, used to study replication in cells.

Where [3] appears, read: Hepatitis C virus, Huh-7, 72 h, Huh-7 replicon cells, 72 h, single value, or second value of a pair x:y, read-out: Activity EC50 (μM) (EC50 luciferase readout).
The mark [4] stands for this setting: Hepatitis C virus, Huh-7, 72 h, read-out: Activity EC50 (μM) (EC50 luciferase readout), Huh-7 replicon cells, 72 h, single value, or second value of a pair x:y.
The mark [5] stands for this setting: Hepatitis C virus, Huh-7, replicon assay, set in line with previous observations, read-out: pre-determined EC50 set for the combination experiments.

Counter-ions that a name gives are not always drawn. Like-named read-outs stand apart in the source and are kept apart here. A value given as a limit tells only on which side of the number the result lay.

T1 sequence (P26663 1658-1711): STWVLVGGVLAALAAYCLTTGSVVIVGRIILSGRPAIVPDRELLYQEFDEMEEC
T1 sequence (P26663 1027-1657): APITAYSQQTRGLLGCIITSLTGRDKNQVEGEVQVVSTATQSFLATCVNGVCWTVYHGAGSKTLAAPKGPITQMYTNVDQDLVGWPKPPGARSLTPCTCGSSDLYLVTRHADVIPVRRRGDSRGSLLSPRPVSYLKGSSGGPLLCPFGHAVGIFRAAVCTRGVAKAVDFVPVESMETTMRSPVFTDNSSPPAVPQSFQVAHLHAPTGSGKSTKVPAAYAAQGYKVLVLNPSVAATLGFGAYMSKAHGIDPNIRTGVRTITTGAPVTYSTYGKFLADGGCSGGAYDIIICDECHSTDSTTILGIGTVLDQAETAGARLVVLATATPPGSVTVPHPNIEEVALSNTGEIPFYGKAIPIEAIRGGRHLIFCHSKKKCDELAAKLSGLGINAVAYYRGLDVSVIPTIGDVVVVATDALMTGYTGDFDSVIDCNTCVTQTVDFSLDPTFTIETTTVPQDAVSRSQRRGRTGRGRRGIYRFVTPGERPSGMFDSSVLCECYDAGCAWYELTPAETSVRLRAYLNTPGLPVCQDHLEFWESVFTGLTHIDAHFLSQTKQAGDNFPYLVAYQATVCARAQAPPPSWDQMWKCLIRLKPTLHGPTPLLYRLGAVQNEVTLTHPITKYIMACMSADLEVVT

With `CC[C@@H](N[C@H](C)CO)c1ccc(F)c(Oc2ccccc2)c1F` [Example 58], in assay [1], the IC50 came to 1000 nM. For the same compound, the EC50 in assay [2] (setting [3]) came to 27 µM.

Consider `CC[C@H](NCCC(=O)NCCO)c1ccc(F)c(Oc2ccccc2)c1F` [Example 92, 3-[(S)-1-(2,4-Difluoro-3-phenoxy-phenyl)-propylamino]-N-(2-hydroxy-ethyl)-propionamide.hydrochloride], for which the 50% inhibitory concentration (IC50) in assay [1] is 910 nM. In addition, the EC50 in assay [2] (setting [3]) was over 30 µM.

As to `CC[C@@H](N[C@@H](C)CC(N)=O)c1ccc(Cl)c(Oc2ccc(F)c(C(N)=O)c2)c1F.Cl` [Example 419], the EC50 in assay [2] (setting [3]) amounted to 0.82 µM.

Take `CCNCCNC(=O)C[C@H](C)N[C@H](CC)c1ccc(Cl)c(Oc2ccccc2)c1F` [Example 316]: the IC50 in assay [1] came to 400 nM. In addition, the EC50 in assay [2] (setting [3]) was over 10 µM.

For the compound `CC[C@@H](N[C@@H](C)CC(N)=O)c1ccc(Cl)c(Oc2ccc3c(c2)OCC3)c1F` [Example 233], in assay [1], the IC50 turned out to be 110 nM. The EC50 in assay [2] (setting [3]) stood at 0.079 µM.

`CC[C@@H](N[C@@H](C)CC(N)=O)c1ccc(Cl)c(Oc2cccc(CNS(C)(=O)=O)c2)c1F` [Example 216]: the IC50 in assay [1] came to 970 nM. Besides, in assay [2] (setting [3]), the EC50 was over 10 µM.

As for `CC[C@@H](N[C@@H](C)CC(=O)N1CCNCC1)c1ccc(Cl)c(Oc2ccccc2)c1F` [Example 235], the half-inhibitory concentration (IC50) in assay [1] stood at 430 nM. Besides, the EC50 in assay [2] (setting [3]) came to 0.6 µM.

On to `CC[C@@H](N[C@@H](C)CC(N)=O)c1ccc(Cl)c(Oc2ccc(C#N)c(F)c2)c1F` [Example 213], for which, in assay [1], the IC50 turned out to be 130 nM. In addition, in assay [2] (setting [3]), the concentration giving a half-maximal response (EC50) stood at 5.2 µM.

Consider `C[C@@H](CO)N[C@@H](CC1CCNCC1)c1ccc(F)c(Oc2ccccc2)c1F` [Example 96], for which the IC50 in assay [1] is 6700 nM. Further, in assay [2] (setting [3]), the EC50 came to 0.24 µM.

Regarding `CC[C@@H](N[C@H](C)CC(N)=O)c1ccc(Cl)c(Oc2ccc(N)c(Cl)c2)c1F` [Example 267], in assay [1], the IC50 came out at 480 nM. In addition, the EC50 in assay [2] (setting [3]) was over 10 µM.

Take `CCC[C@@H](N)c1ccc(Cl)c(Oc2ccccc2)c1F` [Example 118]: the IC50 in assay [1] amounted to 1700 nM. The EC50 in assay [2] (setting [3]) was found to be 4.4 µM.

On to `CCC[C@H](N)c1ccc(Cl)c(Oc2ccccc2)c1F` [Example 119], for which the IC50 in assay [1] turned out to be 320 nM. The EC50 in assay [2] (setting [3]) worked out at 3.4 µM.

Regarding `N[C@H]1CC[C@H](CNCc2ccc(Cl)c(Oc3ccccc3)c2F)CC1` [Example 289], in assay [1], the IC50 was 1100 nM. Moreover, in assay [2] (setting [3]), the EC50 was 0.18 µM.

As to `CC[C@H](NCCC(=O)NO)c1ccc(F)c(Oc2ccccc2)c1F` [Example 302], in assay [2] (setting [3]), the EC50 was determined as 6.9 µM.

In the case of `CC[C@@H](N[C@@H](C)CC(N)=O)c1ccc(Cl)c(Oc2ccc(NC(=O)N(C)C)cc2)c1F.Cl` [Example 407], in assay [2] (setting [3]), the EC50 came out at 0.11 µM.

With `CC[C@H](NCC(N)=O)c1ccc(F)c(Oc2ccccc2)c1F` [Example 301], in assay [2] (setting [3]), the EC50 turned out to be 26 µM.

As for `CC[C@@H](NC(C)(C)CC(N)=O)c1ccc(Cl)c(Oc2ccc(N)nc2)c1F` [Example 460, 3-{[(1R)-1-{3-[(6-aminopyridin-3-yl)oxy]-4-chloro-2-fluorophenyl}propyl]amino}-3-methylbutanamide hydrochloride (1:1)], the EC50 in assay [2] (setting [3]) amounted to 0.13 µM.

As to `CC[C@@H](N[C@@H](C)CC(N)=O)c1ccc(Cl)c(Oc2ccc(-c3ccn[nH]3)cc2)c1F.Cl` [Example 417], the EC50 in assay [2] (setting [3]) was 0.91 µM.

As to `CC[C@@H](N[C@@H](C)CC(N)=O)c1ccc(Cl)c(Oc2ccc3c(c2)OCCO3)c1F.Cl` [Example 410], in assay [2] (setting [3]), the EC50 turned out to be 0.31 µM.

Turning to `CC[C@@H](N[C@@H](C)CC(N)=O)c1ccc(Cl)c(Oc2ccc(NC(C)=O)cc2)c1F` [Example 405], the EC50 in assay [2] (setting [3]) amounted to 0.3 µM.

In the case of `CC[C@@H](N[C@@H](C)CC(N)=O)c1ccc(Cl)c(Oc2ccc(F)c(C(=O)NC)c2)c1F.Cl` [Example 421], the EC50 in assay [2] (setting [3]) came to 0.4 µM.

Consider `CC[C@@H](N[C@@H](C)CC(N)=O)c1ccc(Cl)c(Oc2ccc(F)c(C(=O)N3CCOCC3)c2)c1F.Cl` [Example 423], for which the EC50 in assay [2] (setting [3]) was 1.4 µM.

In the case of `CC[C@@H](N[C@@H](C)CC(N)=O)c1ccc(Cl)c(Oc2ccccn2)c1F.Cl` [Example 413], in assay [2] (setting [3]), the EC50 is 3 µM.

As to `CCNC(=O)CNC(=O)C[C@H](C)N[C@H](CC)c1ccc(Cl)c(Oc2ccccc2)c1F` [Example 243], the EC50 in assay [2] (setting [3]) amounted to 3.8 µM.

`C[C@@H](CC(N)=O)N[C@@H](c1ccc(Cl)c(Oc2ccc(N)nc2)c1F)C1CC1.Cl` [Example 454]: in assay [2] (setting [4]), the EC50 worked out at 0.16 µM.

Turning to `CC[C@@H](N[C@@H](C)CC(N)=O)c1ccc(Cl)c(Oc2ccc(NC(C)=O)nc2)c1Cl` [Example 458], in assay [2] (setting [3]), the concentration for a half-maximal effect (EC50) is 3.5 µM.

Take `CC[C@@H](N[C@@H](C)CC(N)=O)c1ccc(Cl)c(Oc2ccc3c(c2)OCCN3)c1F.Cl` [Example 409]: in assay [2] (setting [3]), the EC50 stood at 0.02 µM.

As for `C[C@@H](CC(N)=O)N[C@@H](c1ccc(Cl)c(Oc2ccccc2)c1F)C1CC1` [Example 459], the EC50 in assay [2] (setting [3]) is 0.63 µM.

Take `CC[C@@H](N[C@@H](C)CC(N)=O)c1ccc(Cl)c(Oc2cnc(N)cn2)c1F.Cl` [Example 429]: the EC50 in assay [2] (setting [3]) worked out at 3 µM.

`CC[C@@H](N[C@@H](C)CC(N)=O)c1ccc(Cl)c(Oc2ccc(C(N)=O)cc2)c1F.Cl` [Example 444]: in assay [2] (setting [4]), the EC50 is 0.82 µM.

For `CC[C@@H](N[C@@H](C)CC(N)=O)c1ccc(Cl)c(Oc2ccc(Cl)cc2)c1F.Cl` [Example 400], in assay [2] (setting [3]), the EC50 is 3 µM.

`CC[C@@H](N[C@@H](C)CC(N)=O)c1ccc(Cl)c(Oc2ccccc2)c1C` [Example 468]: the EC50 in assay [2] (setting [3]) was over 3 µM.

As for `CCC(NC1CCCNC1)c1ccc(F)c(Oc2ccccc2)c1F` (stereo not shown) [Example 18], the EC50 in assay [2] (Huh-7 replicon cells, 72 h, single value, or second value of a pair x:y, read-out: Activity EC50 (μM) (EC50 luciferase readout)) stood at 1.6 µM.

`CC[C@@H](N[C@@H](C)CC(N)=O)c1ccc(Cl)c(Oc2nc3cnccc3s2)c1F.Cl` [Example 438]: the EC50 in assay [2] (setting [3]) was over 3 µM.

Consider `C[C@@H](CC(N)=O)N[C@@H](c1ccc(Cl)c(Oc2ccc(C(N)=O)nc2)c1F)C1CC1.Cl` [Example 456], for which the EC50 in assay [2] (setting [3]) was over 3 µM.

Turning to `CC(C)(C)OC(=O)N[C@H]1CCCCC/C=C\[C@@H]2C[C@@]2(C(=O)NS(=O)(=O)C2CC2)NC(=O)[C@@H]2C[C@@H](OC(=O)N3Cc4cccc(F)c4C3)CN2C1=O` [Danoprevir, reference compound], the EC50 in assay [2] (setting [5]) turned out to be 0.001 µM.

Take `CC(C)(C)C#Cc1cc(N(C(=O)[C@H]2CC[C@H](C)CC2)[C@H]2CC[C@H](O)CC2)c(C(=O)O)s1` [VX-222, Lomibuvir, reference compound]: in assay [2] (setting [5]), the EC50 was determined as 0.003 µM.

As to `CC[C@@H](N[C@@H](C)CC(N)=O)c1ccc(Cl)c(Oc2ccc(N)cc2)c1F.Cl` [Example 404], the EC50 in assay [2] (setting [3]) worked out at 0.023 µM.

`CC[C@@H](N[C@@H](C)CC(N)=O)c1ccc(Cl)c(Oc2nc3ccccc3s2)c1F.Cl` [Example 435]: the EC50 in assay [2] (setting [3]) turned out to be 3 µM.

In the case of `CC[C@@H](N[C@@H](C)CC(N)=O)c1ccc(Cl)c(Oc2ccc(F)c(C(=O)N(C)C)c2)c1F.Cl` [Example 425], the EC50 in assay [2] (setting [3]) came to 0.35 µM.

As for `[2H]C([2H])([2H])C([2H])([2H])[C@@H](N[C@@H](C)CC(N)=O)c1ccc(Cl)c(Oc2ccccc2)c1F` [Example 472], the EC50 in assay [2] (setting [3]) is over 3 µM.

Take `CC[C@@H](N[C@@H](C)CC(N)=O)c1ccc(Cl)c(Oc2ncc(N)cn2)c1F.Cl` [Example 433]: the EC50 in assay [2] (setting [3]) stood at 1.6 µM.

`CC[C@@H](N[C@@H](C)CC(N)=O)c1ccc(Cl)c(Oc2ncccn2)c1F.Cl` [Example 431]: the EC50 in assay [2] (setting [3]) is over 3 µM.

Usually IC50 stands for the concentration needed to halve the response being measured. The term EC50 denotes the midpoint of the concentration-response curve.
